Reference: patent US20260022142A1, “MACROCYCLIC IMMUNOMODULATORS” (Bristol-Myers Squibb Company, priority 2022, published 2026)
Bridge positions count the residues as written; N and C are the ends. Square brackets hold non-standard residues; d marks the D form. Peptide text beside a SMILES is read from it. * marks the point of attachment. ξ: configuration not given here. Phe(4-COOH) = N[C@@H](Cc1ccc(C(=O)O)cc1)C(=O)O; Bip = N[C@@H](Cc1ccc(-c2ccccc2)cc1)C(=O)O; Phe(3-Me) = Cc1cccc(C[C@H](N)C(=O)O)c1; Cha = N[C@@H](CC1CCCCC1)C(=O)O; Cit = NC(=O)NCCC[C@H](N)C(=O)O; Thr(3ξ) = CC(O)[C@H](N)C(=O)O; Carboxymethyl = O=C(O)C*; Orn = NCCC[C@H](N)C(=O)O; Aun = NCCCCCCCCCCC(=O)O; Dab = NCC[C@H](N)C(=O)O; AEEA = NCCOCCOCC(=O)O

The molecules below were run against T1, PD-1/PD-L1 interaction (PE-labeled human PD-L1-Ig binding to Jurkat cell line over-expressing human PD-1) (Homo sapiens, UniProt Q15116) (assay: Jurkat-PD-1 Cell Binding High-Content Screening Assay (CBA)). Settings: Jurkat cell line over-expressing human PD-1; PE-labeled PD-L1-Ig 20 nM final; read-out: Jurkat hPD1-PDL1 IC50.
T1 construct: expressed in transfected cells; host or cells: Jurkat
Assay type: cell-based
In short: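 Read-out is high-content imaging of cell-bound phycoerythrin-tagged PD-L1-Ig on fixed, Hoechst-counterstained Jurkat cells that over-express human PD-1. Compound exposure lasts 2 h at 37° C before the labeled ligand (20 nM final) is added for a further hour.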

T1 sequence (Q15116 25-288): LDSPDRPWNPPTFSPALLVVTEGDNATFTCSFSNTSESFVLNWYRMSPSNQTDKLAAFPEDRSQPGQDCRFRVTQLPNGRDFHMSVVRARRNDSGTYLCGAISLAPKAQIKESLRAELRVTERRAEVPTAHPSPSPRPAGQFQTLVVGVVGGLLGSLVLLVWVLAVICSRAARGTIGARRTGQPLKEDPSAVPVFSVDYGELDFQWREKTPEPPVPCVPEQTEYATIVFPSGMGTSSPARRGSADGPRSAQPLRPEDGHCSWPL

Row | SMILES | IC50
1 | CC(=O)NCCCC[C@@H]1NC(=O)[C@H](Cc2ccc(-c3ccccc3)cc2)NC(=O)[C@H](Cc2ccccc2)NC(=O)[C@H](Cc2cccc(C)c2)NC(=O)[C@H](CC(=O)O)NC(=O)[C@H](Cc2ccc(OCC(=O)O)cc2)NC(=O)[C@H](C(C)O)NC(=O)CSC[C@@H](C(=O)N[C@@H](CCN)C(=O)NCCCCCCCCCCC(=O)O)NC(=O)[C@H](C(C)O)NC(=O)[C@H](C(C)C)NC(=O)[C@H](CC2CCCCC2)NC(=O)[C@H](CCN)NC(=O)[C@@H](CC(C)C)NC(=O)[C@H](CCCNC(N)=O)NC1=O (stereo partly drawn) [Compound 3466] ({CH2CO}-[Thr(3ξ)]Y(Carboxymethyl)D[Phe(3-Me)]F[Bip]K(Ac)[Cit][dL][Dab][Cha]V[Thr(3ξ)]C[Dab][Aun]-OH; thioether N-14) | 19.5 nM
2 | Cc1cccc(C[C@@H]2NC(=O)[C@H](CC(=O)O)NC(=O)[C@H](Cc3ccc(OCC(=O)O)cc3)NC(=O)[C@H](C(C)O)NC(=O)CSC[C@@H](C(=O)N[C@@H](CCCCN)C(=O)NCCCCCCCCCCC(=O)O)NC(=O)[C@H](C(C)O)NC(=O)[C@H](C(C)C)NC(=O)[C@H](CC3CCCCC3)NC(=O)[C@H](CCN)NC(=O)[C@@H](CC(C)C)NC(=O)[C@H](CCCN)NC(=O)[C@H](CCCNC(N)=O)NC(=O)[C@H](Cc3ccc(-c4ccccc4)cc3)NC(=O)[C@H](C(C)C)NC2=O)c1 (stereo partly drawn) [Compound 3467] ({CH2CO}-[Thr(3ξ)]Y(Carboxymethyl)D[Phe(3-Me)]V[Bip][Cit][Orn][dL][Dab][Cha]V[Thr(3ξ)]CK[Aun]-OH; thioether N-14) | 33 nM
3 | Cc1cccc(C[C@@H]2NC(=O)[C@H](CC(=O)O)NC(=O)[C@H](Cc3ccc(OCC(=O)O)cc3)NC(=O)[C@H](CCCNC(=N)N)NC(=O)CSC[C@@H](C(=O)N[C@@H](CCCCN)C(=O)NCCCCCCCCCCC(=O)O)NC(=O)[C@H](C(C)O)NC(=O)[C@H](C(C)C)NC(=O)[C@H](CC3CCCCC3)NC(=O)[C@H](CCN)NC(=O)[C@@H](CC(C)C)NC(=O)[C@H](CCCN)NC(=O)[C@H](CCCNC(N)=O)NC(=O)[C@H](Cc3ccc(-c4ccccc4)cc3)NC(=O)[C@H](C(C)C)NC2=O)c1 (stereo partly drawn) [Compound 3468] ({CH2CO}-RY(Carboxymethyl)D[Phe(3-Me)]V[Bip][Cit][Orn][dL][Dab][Cha]V[Thr(3ξ)]CK[Aun]-OH; thioether N-14) | 26 nM
4 | Cc1cccc(C[C@@H]2NC(=O)[C@H](CC(=O)O)NC(=O)[C@H](Cc3ccc(OCC(=O)O)cc3)NC(=O)[C@H](CCCNC(=N)N)NC(=O)CSC[C@@H](C(=O)N[C@@H](CCCCN)C(=O)NCCCCCCCCCCC(=O)O)NC(=O)[C@H](CCCCN)NC(=O)[C@H](C(C)C)NC(=O)[C@H](CC3CCCCC3)NC(=O)[C@H](CCN)NC(=O)[C@@H](CC(C)C)NC(=O)[C@H](CCCN)NC(=O)[C@H](CCCNC(N)=O)NC(=O)[C@H](Cc3ccc(-c4ccccc4)cc3)NC(=O)[C@H](C(C)C)NC2=O)c1 [Compound 3470] ({CH2CO}-RY(Carboxymethyl)D[Phe(3-Me)]V[Bip][Cit][Orn][dL][Dab][Cha]VKCK[Aun]-OH; thioether N-14) | 24.8 nM
5 | Cc1cccc(C[C@@H]2NC(=O)[C@H](CC(=O)O)NC(=O)[C@H](Cc3ccc(OCC(=O)O)cc3)NC(=O)[C@H](C(C)C)NC(=O)CSC[C@@H](C(=O)N[C@@H](CCCCN)C(=O)NCCCCCCCCCCC(=O)O)NC(=O)[C@H](C(C)O)NC(=O)[C@H](C(C)C)NC(=O)[C@H](CC3CCCCC3)NC(=O)[C@H](CCN)NC(=O)[C@@H](CC(C)C)NC(=O)[C@H](CCCN)NC(=O)[C@H](C(C)C)NC(=O)[C@H](Cc3ccc(-c4ccccc4)cc3)NC(=O)[C@H](C(C)C)NC2=O)c1 (stereo partly drawn) [Compound 3471] ({CH2CO}-VY(Carboxymethyl)D[Phe(3-Me)]V[Bip]V[Orn][dL][Dab][Cha]V[Thr(3ξ)]CK[Aun]-OH; thioether N-14) | 21.2 nM
6 | Cc1cccc(C[C@@H]2NC(=O)[C@H](CC(=O)O)NC(=O)[C@H](Cc3ccc(OCC(=O)O)cc3)NC(=O)[C@H](C(C)O)NC(=O)CSC[C@@H](C(=O)N[C@@H](CCCCN)C(=O)NCCCCCCCCCCC(=O)O)NC(=O)[C@H](CCCCN)NC(=O)[C@H](C(C)C)NC(=O)[C@H](CC3CCCCC3)NC(=O)[C@H](CCN)NC(=O)[C@@H](CC(C)C)NC(=O)[C@H](CCCN)NC(=O)[C@H](C(C)C)NC(=O)[C@H](Cc3ccc(-c4ccccc4)cc3)NC(=O)[C@H](C(C)C)NC2=O)c1 (stereo partly drawn) [Compound 3472] ({CH2CO}-[Thr(3ξ)]Y(Carboxymethyl)D[Phe(3-Me)]V[Bip]V[Orn][dL][Dab][Cha]VKCK[Aun]-OH; thioether N-14) | 13.3 nM
7 | Cc1cccc(C[C@@H]2NC(=O)[C@H](CC(=O)O)NC(=O)[C@H](Cc3ccc(OCC(=O)O)cc3)NC(=O)[C@H](CCCNC(=N)N)NC(=O)CSC[C@@H](C(=O)N[C@@H](CCCCN)C(=O)NCCCCCCCCCCC(=O)O)NC(=O)[C@H](C(C)O)NC(=O)[C@H](C(C)C)NC(=O)[C@H](CC3CCCCC3)NC(=O)[C@H](CCN)NC(=O)[C@@H](CC(C)C)NC(=O)[C@H](CCCN)NC(=O)[C@H](Cc3ccc(O)cc3)NC(=O)[C@H](Cc3ccc(-c4ccccc4)cc3)NC(=O)[C@H](C(C)C)NC2=O)c1 (stereo partly drawn) [Compound 3473] ({CH2CO}-RY(Carboxymethyl)D[Phe(3-Me)]V[Bip]Y[Orn][dL][Dab][Cha]V[Thr(3ξ)]CK[Aun]-OH; thioether N-14) | 15.1 nM
8 | Cc1cccc(C[C@@H]2NC(=O)[C@H](CC(=O)O)NC(=O)[C@H](Cc3ccc(OCC(=O)O)cc3)NC(=O)[C@H](CCCNC(=N)N)NC(=O)CSC[C@@H](C(=O)N[C@@H](CCCCN)C(=O)NCCCCCCCCCCC(=O)O)NC(=O)[C@H](CCCN)NC(=O)[C@H](C(C)C)NC(=O)[C@H](CC3CCCCC3)NC(=O)[C@H](CCN)NC(=O)[C@@H](CC(C)C)NC(=O)[C@H](CCCN)NC(=O)[C@H](CCCNC(N)=O)NC(=O)[C@H](Cc3ccc(-c4ccccc4)cc3)NC(=O)[C@H](C(C)C)NC2=O)c1 [Compound 3474] ({CH2CO}-RY(Carboxymethyl)D[Phe(3-Me)]V[Bip][Cit][Orn][dL][Dab][Cha]V[Orn]CK[Aun]-OH; thioether N-14) | 11.8 nM
9 | Cc1cccc(C[C@@H]2NC(=O)[C@H](CC(=O)O)NC(=O)[C@H](Cc3ccc(OCC(=O)O)cc3)NC(=O)[C@H](C(C)O)NC(=O)CSC[C@@H](C(=O)NCCOCCOCC(=O)NCCCCCCCCCCC(=O)O)NC(=O)[C@H](C(C)O)NC(=O)[C@H](C(C)C)NC(=O)[C@H](CC3CCCCC3)NC(=O)[C@H](CCN)NC(=O)[C@@H](CC(C)C)NC(=O)[C@H](CCCN)NC(=O)[C@H](Cc3ccc(OCC(=O)O)cc3)NC(=O)[C@H](Cc3ccc(-c4ccccc4)cc3)NC(=O)[C@H](Cc3ccc(OCC(=O)O)cc3)NC2=O)c1 (stereo partly drawn) [Compound 3478] ({CH2CO}-[Thr(3ξ)]Y(Carboxymethyl)D[Phe(3-Me)]Y(Carboxymethyl)[Bip]Y(Carboxymethyl)[Orn][dL][Dab][Cha]V[Thr(3ξ)]C[AEEA][Aun]-OH; thioether N-14) | 21.1 nM

Further molecules by falling IC50, results first:

Row | IC50 | SMILES
10 | 38.4 nM | Cc1cccc(C[C@@H]2NC(=O)[C@H](CC(=O)O)NC(=O)[C@H](Cc3ccc(OCC(=O)O)cc3)NC(=O)[C@H](CCCNC(=N)N)NC(=O)CSC[C@@H](C(=O)NCCOCCOCC(=O)NCCCCCCCCCCC(=O)O)NC(=O)[C@H](C(C)O)NC(=O)[C@H](C(C)C)NC(=O)[C@H](CC3CCCCC3)NC(=O)[C@H](CCN)NC(=O)[C@@H](CC(C)C)NC(=O)[C@H](CCCN)NC(=O)[C@H](Cc3ccc(OCC(=O)O)cc3)NC(=O)[C@H](Cc3ccc(-c4ccccc4)cc3)NC(=O)[C@H](Cc3ccc(OCC(=O)O)cc3)NC2=O)c1 (stereo partly drawn) [Compound 3477] ({CH2CO}-RY(Carboxymethyl)D[Phe(3-Me)]Y(Carboxymethyl)[Bip]Y(Carboxymethyl)[Orn][dL][Dab][Cha]V[Thr(3ξ)]C[AEEA][Aun]-OH; thioether N-14)
11 | 31.3 nM | Cc1cccc(C[C@@H]2NC(=O)[C@H](CC(=O)O)NC(=O)[C@H](Cc3ccc(C(=O)O)cc3)NC(=O)[C@H](Cc3ccc(OCC(=O)O)cc3)NC(=O)CSC[C@@H](C(=O)N[C@@H](CCN)C(=O)NCCCCCCCCCCC(=O)O)NC(=O)[C@H](C(C)O)NC(=O)[C@H](C(C)C)NC(=O)[C@H](CC3CCCCC3)NC(=O)[C@H](CCN)NC(=O)[C@@H](CC(C)C)NC(=O)[C@H](CCCN)NC(=O)[C@H](CCCNC(N)=O)NC(=O)[C@H](Cc3ccc(-c4ccccc4)cc3)NC(=O)[C@H](CC(C)C)NC2=O)c1 (stereo partly drawn) [Compound 3463] ({CH2CO}-Y(Carboxymethyl)[Phe(4-COOH)]D[Phe(3-Me)]L[Bip][Cit][Orn][dL][Dab][Cha]V[Thr(3ξ)]C[Dab][Aun]-OH; thioether N-14)
12 | 25.7 nM | Cc1cccc(C[C@@H]2NC(=O)[C@H](CC(=O)O)NC(=O)[C@H](Cc3ccc(OCC(=O)O)cc3)NC(=O)[C@H](CCCNC(=N)N)NC(=O)CSC[C@@H](C(=O)N[C@@H](CCCCN)C(=O)NCCCCCCCCCCC(=O)O)NC(=O)[C@H](C(C)O)NC(=O)[C@H](C(C)C)NC(=O)[C@H](CC3CCCCC3)NC(=O)[C@H](CCN)NC(=O)[C@@H](CC(C)C)NC(=O)[C@H](CCCN)NC(=O)[C@H](C(C)C)NC(=O)[C@H](Cc3ccc(-c4ccccc4)cc3)NC(=O)[C@H](C(C)C)NC2=O)c1 (stereo partly drawn) [Compound 3475] ({CH2CO}-RY(Carboxymethyl)D[Phe(3-Me)]V[Bip]V[Orn][dL][Dab][Cha]V[Thr(3ξ)]CK[Aun]-OH; thioether N-14)
13 | 16.9 nM | Cc1cccc(C[C@@H]2NC(=O)[C@H](CC(=O)O)NC(=O)[C@H](Cc3ccc(OCC(=O)O)cc3)NC(=O)[C@H](C(C)O)NC(=O)CSC[C@@H](C(=O)N[C@@H](CCCCN)C(=O)NCCCCCCCCCCC(=O)O)NC(=O)[C@H](CCCCN)NC(=O)[C@H](C(C)C)NC(=O)[C@H](CC3CCCCC3)NC(=O)[C@H](CCN)NC(=O)[C@@H](CC(C)C)NC(=O)[C@H](CCCN)NC(=O)[C@H](CCCNC(N)=O)NC(=O)[C@H](Cc3ccc(-c4ccccc4)cc3)NC(=O)[C@H](C(C)C)NC2=O)c1 (stereo partly drawn) [Compound 3469] ({CH2CO}-[Thr(3ξ)]Y(Carboxymethyl)D[Phe(3-Me)]V[Bip][Cit][Orn][dL][Dab][Cha]VKCK[Aun]-OH; thioether N-14)
